# Publication PMC8589421, “Impact of Type II LRRK2 inhibitors on signaling and mitophagy” (Biochemical Journal, 2021)
# Like-named read-outs stand apart in the source and are kept apart here.
# How the values were obtained:
# [1] = tested on: Rab29 mediated relocalization of LRRK2 to the Golgi apparatus; assay: Rab29 mediated recruitment of LRRK2 to the Golgi, immunofluorescence in HeLa cells; type: cell-based, human; conditions: 5 μM GZD-824 or 1 μM GSK3357679A for 4 h
# Procedure: HeLa cells were seeded on coverslips and transfected with the plasmid reported in each image 24 h before fixation. Following the treatments with the inhibitors described in figure legends, cells were washed twice in DPBS and fixed with 3.7% Paraformaldehyde pH 7.3 (Agar scientific, #R1026), 200 mM HEPES, for 20 min. Cells were then washed twice with DMEM, 20 mM HEPES, and then incubated for 10 min with DMEM, 10 mM HEPES. After two washes in DPBS, fixed cells were permeabilized with 0.2% (by vol) NP-40 in DPBS for 10 min. Cells were blocked using 1% (by mass) BSA in DPBS, then incubated for 1 h with primary antibodies diluted in 1% (by mass) BSA in DPBS, washed three times in 0.2% (by mass) BSA in DPBS, and incubated for 1 h with secondary antibodies. The coverslips were washed three times with 0.2% (by mass) BSA in PBS. Coverslips were washed once more in double distilled water and mounted on slides (VWR, #631-0909) using ProLong™ Diamond Antifade Mountant (ThermoFisher, #P36961). For localization of the Golgi compartment, Golgin-97 was stained with rabbit anti-GM97 (CST, #D8P2K) and visualized with goat anti-rabbit conjugated to Alexa Fluor 405 (Life Technologies, #P10994). HA-Rab29 was stained with mouse anti-HA (Abcam, clone HA.C5 #ab18181) and visualized with goat anti-mouse conjugated to Alexa Fluor 594 (Life Technologies, #A-11032). […]
# [2] = tested on: Rab10 pThr73, LRRK2 [R1441C]; assay: Rab10 Thr73 phospho-immunoblot in LRRK2[R1441C] knock-in MEFs; type: cell-based, mouse; conditions: LRRK2[R1441C] knock-in MEFs, 2 h, read-out: LRRK2 [R1441C] Rab10 pThr73 IC50
# Procedure: Wild-type and homozygous LRRK2 [R1441C] (Jax, stock number: 009346), LRRK2[G2019S] Taconic, (model 13940) and LRRK2 [A2016T] (Jax, stock number: 021828)[7] knock-in MEF cells were isolated from littermate-matched mouse embryos on a C57BL/6J background at day E12.5 as described previously. MEFs were grown in Dulbecco's modified Eagle medium (DMEM GIBCO, #11960-085) containing 10% (by vol) fetal bovine serum (FBS), 2 mM L-glutamine, 100 U/ml penicillin, and […] streptomycin supplemented with non-essential amino acids and 1 mM sodium pyruvate. Human embryonic kidney 293 (HEK293) (#ATCC CRL-1573) and HeLa (#ATCC CCL-2) cells were purchased from American Tissue Culture Collection (ATCC) and cultured in DMEM containing 10% (by vol) FBS, 2 mM L-glutamine, 100 U/ml penicillin, and […] streptomycin. All cells were grown at 37°C, 5% (by vol) CO2 in a humidified atmosphere and regularly tested for mycoplasma contamination.
# Inhibitors were dissolved in dimethyl sulfoxide (DMSO) (Sigma, #D2650). The inhibitors were diluted 1000× into cell medium. The equivalent volume of DMSO was added to the minus inhibitor controls. Experiments were performed in six-well plates, 10 cm dishes or 15 cm dishes depending on the amount of cell extract required.
# Cells were lysed in an ice-cold lysis buffer containing 50 mM Tris–HCl, pH 7.4, 1% (by vol) Triton X-100, 10% (by vol) glycerol, 150 mM NaCl, 1 mM sodium orthovanadate, 50 mM NaF, 10 mM 2-glycerophosphate, 5 mM sodium pyrophosphate, 1 µg/ml microcystin-LR, and cOmplete EDTA-free protease inhibitor cocktail (Roche, #11836170001). Lysates were incubated on ice for 30 min and clarified by centrifugation at 20 800×g at 4°C for 20 min. Supernatants were quantified by Bradford assay (Bio-Rad Protein Assay Dye Reagent Concentrate #5000006) and samples prepared in 1× lithium dodecyl sulfate sample buffer final concentration (NuPage LDS Sample buffer 4× Invitrogen, #NP0008). When not deployed immediately, lysates were snap-frozen in liquid nitrogen and stored at −80°C until use. […]
# [3] = target: T1, Flag-LRRK2[G2019S] (Homo sapiens, UniProt Q5S007, G2019S); assay: IC50 LRRK2 Nictide assay, G2019S; type: biochemical; conditions: IC50 LRRK2 G2019S (100 µM ATP), Nictide peptide substrate, value ± SD
# T1 construct: towards full length wild type and G2019S pathogenic LRRK2 mutant in a biochemical assay; Flag (N); purchased ThermoFisher Scientific A15201
# T1 sequence (Q5S007 whole entry G2019S): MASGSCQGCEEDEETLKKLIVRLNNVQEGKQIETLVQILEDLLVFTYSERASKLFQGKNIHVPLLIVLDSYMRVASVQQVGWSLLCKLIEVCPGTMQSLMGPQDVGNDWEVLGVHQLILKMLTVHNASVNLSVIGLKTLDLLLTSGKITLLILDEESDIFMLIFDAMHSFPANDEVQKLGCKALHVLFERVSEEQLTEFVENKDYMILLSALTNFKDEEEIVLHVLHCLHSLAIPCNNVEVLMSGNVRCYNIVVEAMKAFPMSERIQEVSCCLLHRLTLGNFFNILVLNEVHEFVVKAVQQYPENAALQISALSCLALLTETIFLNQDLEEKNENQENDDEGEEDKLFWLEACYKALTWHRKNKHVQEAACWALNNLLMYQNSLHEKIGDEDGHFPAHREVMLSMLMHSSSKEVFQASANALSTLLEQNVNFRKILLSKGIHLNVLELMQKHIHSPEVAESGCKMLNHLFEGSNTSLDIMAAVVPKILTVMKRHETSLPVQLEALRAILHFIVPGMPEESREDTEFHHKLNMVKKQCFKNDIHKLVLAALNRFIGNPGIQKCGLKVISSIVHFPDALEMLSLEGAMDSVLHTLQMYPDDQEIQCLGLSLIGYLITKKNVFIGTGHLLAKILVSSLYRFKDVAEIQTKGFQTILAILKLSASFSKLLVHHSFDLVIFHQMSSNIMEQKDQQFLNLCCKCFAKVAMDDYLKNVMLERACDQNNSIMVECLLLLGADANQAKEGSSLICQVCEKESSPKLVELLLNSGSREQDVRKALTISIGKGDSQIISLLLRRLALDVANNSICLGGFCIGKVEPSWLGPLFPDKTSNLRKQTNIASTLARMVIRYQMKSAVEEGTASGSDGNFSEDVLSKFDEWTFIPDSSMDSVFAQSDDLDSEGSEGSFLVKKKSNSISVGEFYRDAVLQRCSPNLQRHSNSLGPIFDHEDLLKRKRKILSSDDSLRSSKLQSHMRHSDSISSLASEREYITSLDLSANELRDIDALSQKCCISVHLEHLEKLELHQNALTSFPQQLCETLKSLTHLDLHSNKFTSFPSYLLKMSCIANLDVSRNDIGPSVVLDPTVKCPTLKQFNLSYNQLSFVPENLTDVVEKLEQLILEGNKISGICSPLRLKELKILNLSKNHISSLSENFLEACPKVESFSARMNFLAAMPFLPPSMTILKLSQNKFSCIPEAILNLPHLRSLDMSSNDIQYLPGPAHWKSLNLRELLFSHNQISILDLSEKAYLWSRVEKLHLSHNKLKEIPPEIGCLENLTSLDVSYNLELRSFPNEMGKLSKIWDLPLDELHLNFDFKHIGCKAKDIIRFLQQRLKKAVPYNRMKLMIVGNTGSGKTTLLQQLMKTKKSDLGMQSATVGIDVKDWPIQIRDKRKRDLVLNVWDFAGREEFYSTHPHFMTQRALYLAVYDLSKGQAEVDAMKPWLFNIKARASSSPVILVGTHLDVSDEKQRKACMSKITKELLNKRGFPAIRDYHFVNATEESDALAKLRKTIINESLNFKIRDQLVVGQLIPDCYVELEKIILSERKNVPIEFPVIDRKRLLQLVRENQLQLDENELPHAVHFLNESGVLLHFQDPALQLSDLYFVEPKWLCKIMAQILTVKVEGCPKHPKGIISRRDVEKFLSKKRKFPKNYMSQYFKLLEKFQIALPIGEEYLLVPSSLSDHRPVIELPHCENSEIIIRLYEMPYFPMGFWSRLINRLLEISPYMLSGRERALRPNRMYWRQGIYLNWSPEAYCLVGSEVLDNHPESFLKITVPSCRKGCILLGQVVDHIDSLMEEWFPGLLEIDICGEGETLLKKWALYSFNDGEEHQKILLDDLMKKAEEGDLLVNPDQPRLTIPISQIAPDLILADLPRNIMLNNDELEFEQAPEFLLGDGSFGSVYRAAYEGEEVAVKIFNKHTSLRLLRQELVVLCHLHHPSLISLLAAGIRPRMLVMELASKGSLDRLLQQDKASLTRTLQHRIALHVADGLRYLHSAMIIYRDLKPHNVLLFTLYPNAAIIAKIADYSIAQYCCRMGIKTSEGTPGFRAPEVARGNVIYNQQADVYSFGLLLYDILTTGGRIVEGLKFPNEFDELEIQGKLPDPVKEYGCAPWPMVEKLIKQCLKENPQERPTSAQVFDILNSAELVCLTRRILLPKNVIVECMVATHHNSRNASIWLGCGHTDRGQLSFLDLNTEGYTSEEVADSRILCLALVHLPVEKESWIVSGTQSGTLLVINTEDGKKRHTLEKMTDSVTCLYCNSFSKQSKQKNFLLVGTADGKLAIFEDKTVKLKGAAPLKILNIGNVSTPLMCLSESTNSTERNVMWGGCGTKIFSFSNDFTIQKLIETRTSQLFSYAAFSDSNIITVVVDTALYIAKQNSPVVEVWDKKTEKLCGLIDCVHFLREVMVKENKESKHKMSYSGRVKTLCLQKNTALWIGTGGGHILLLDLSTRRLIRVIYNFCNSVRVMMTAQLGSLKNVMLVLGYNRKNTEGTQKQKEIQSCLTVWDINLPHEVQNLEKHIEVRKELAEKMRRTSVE
smiles,measurement,setting,value
Cc1ccc(C(=O)Nc2ccc(CN3CCN(C)CC3)c(C(F)(F)F)c2)cc1C#Cc1cnc2[nH]ncc2c1 [GZD-824],impact on Rab29 mediated recruitment of LRRK2 to the Golgi,[1],did not significantly impact
same,IC50,[2],262 nM
same,IC50,[2]; Mus musculus,262 nM
same,IC50,[3],80 nM
